Reference: article PMC6658524, “Lysosomal degradation of newly formed insulin granules contributes to β cell failure in diabetes” (Nature Communications, 2019)

Key:
mTOR = mTOR (Homo sapiens, UniProt P42345); assay: 60-kinase selectivity panel, % inhibition at […]; assay type: biochemical
p38γ (SAPK3) = target: T1, p38γ (SAPK3) (Homo sapiens, UniProt P53778); assay: mobility shift assay (Caliper); confirmed in 60-kinase panel, % inhibition at […]; assay type: biochemical
T1 construct: gene MAPK12

p38δ = target: T2, p38δ (Homo sapiens, UniProt O15264); assay: biochemical; design: Kinase inhibition by mobility shift assay (Caliper)
T2 construct: gene MAPK13

p38α = target: T3, p38α (Homo sapiens, UniProt Q16539); assay: biochemical; design: Kinase inhibition by mobility shift assay (Caliper)
T3 construct: gene MAPK14

PKD1 = target: T4, PKD1 (Homo sapiens, UniProt Q15139); assay: biochemical; design: Kinase inhibition by mobility shift assay (Caliper)
T4 construct: gene PRKD1

CaMKIIδ(h) = target: T5, CaMKIIδ(h) (Homo sapiens, UniProt Q13557); assay: biochemical; design: Eurofins KinaseProfiler panel of 60 kinases, per cent inhibition
T5 construct: gene CAMK2D
Description: (§1) A more detailed account of the discovery, chemistry and biochemical properties of this novel class of selective p38δ inhibitors will be given elsewhere.

DDR2(h) = DDR2(h) (Homo sapiens, UniProt Q16832); assay: biochemical; design: Eurofins KinaseProfiler panel of 60 kinases, per cent inhibition
Description: as §1

DYRK2(h) = DYRK2(h) (Homo sapiens, UniProt Q92630); assay: biochemical; design: Eurofins KinaseProfiler panel of 60 kinases, per cent inhibition
Description: as §1

Flt1(h) = Flt1(h) (Homo sapiens, UniProt P17948); assay: biochemical; design: Eurofins KinaseProfiler panel of 60 kinases, per cent inhibition
Description: as §1

Hck(h) activated = Hck(h) activated (Homo sapiens, UniProt P08631); assay: biochemical; design: Eurofins KinaseProfiler panel of 60 kinases, per cent inhibition
Description: as §1

IR(h) = target: T6, IR(h) (Homo sapiens, UniProt P06213); assay: biochemical; design: Eurofins KinaseProfiler panel of 60 kinases, per cent inhibition
T6 construct: gene INSR
Description: as §1

LRRK2(h) = LRRK2(h) (Homo sapiens, UniProt Q5S007); assay: biochemical; design: Eurofins KinaseProfiler panel of 60 kinases, per cent inhibition
Description: as §1

Lck(h) activated = Lck(h) activated (Homo sapiens, UniProt P06239); assay: biochemical; design: Eurofins KinaseProfiler panel of 60 kinases, per cent inhibition
Description: as §1

PKCε(h) = target: T7, PKCε(h) (Homo sapiens, UniProt Q02156); assay: biochemical; design: Eurofins KinaseProfiler panel of 60 kinases, per cent inhibition
T7 construct: gene PRKCE
Description: as §1

PKCθ(h) = target: T8, PKCθ(h) (Homo sapiens, UniProt Q04759); assay: biochemical; design: Eurofins KinaseProfiler panel of 60 kinases, per cent inhibition
T8 construct: gene PRKCQ
Description: as §1

SAPK3(h) = target: T9, SAPK3(h) (Homo sapiens, UniProt P53778); assay: biochemical; design: Eurofins KinaseProfiler panel of 60 kinases, per cent inhibition
T9 construct: gene MAPK12
Description: as §1

cKit(h) = target: T10, cKit(h) (Homo sapiens, UniProt P10721); assay: biochemical; design: Eurofins KinaseProfiler panel of 60 kinases, per cent inhibition
T10 construct: gene KIT
Description: as §1

cSRC(h) = target: T11, cSRC(h) (Homo sapiens, UniProt P12931); assay: biochemical; design: Eurofins KinaseProfiler panel of 60 kinases, per cent inhibition
T11 construct: gene SRC
Description: as §1

mTOR(h) = mTOR(h) (Homo sapiens, UniProt P42345); assay: biochemical; design: Eurofins KinaseProfiler panel of 60 kinases, per cent inhibition
Description: as §1

Sequence of DYRK2(h) (Q92630 whole entry): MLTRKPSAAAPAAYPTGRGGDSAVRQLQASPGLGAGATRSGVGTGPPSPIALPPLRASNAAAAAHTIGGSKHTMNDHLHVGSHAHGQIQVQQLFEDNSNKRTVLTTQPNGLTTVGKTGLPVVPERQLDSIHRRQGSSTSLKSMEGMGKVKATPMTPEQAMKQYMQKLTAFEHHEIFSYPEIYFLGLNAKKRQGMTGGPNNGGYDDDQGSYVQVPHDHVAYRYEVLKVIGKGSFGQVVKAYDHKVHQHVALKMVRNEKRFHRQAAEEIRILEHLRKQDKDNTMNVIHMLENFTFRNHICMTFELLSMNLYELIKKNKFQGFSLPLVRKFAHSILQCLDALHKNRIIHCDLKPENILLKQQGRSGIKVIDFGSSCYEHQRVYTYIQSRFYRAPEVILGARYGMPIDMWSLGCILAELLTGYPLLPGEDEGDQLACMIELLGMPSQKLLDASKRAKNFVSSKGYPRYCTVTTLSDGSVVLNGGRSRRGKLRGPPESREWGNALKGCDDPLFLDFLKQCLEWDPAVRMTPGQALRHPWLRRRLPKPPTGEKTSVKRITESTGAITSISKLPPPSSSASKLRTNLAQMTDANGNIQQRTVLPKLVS
T5 sequence (Q13557 whole entry): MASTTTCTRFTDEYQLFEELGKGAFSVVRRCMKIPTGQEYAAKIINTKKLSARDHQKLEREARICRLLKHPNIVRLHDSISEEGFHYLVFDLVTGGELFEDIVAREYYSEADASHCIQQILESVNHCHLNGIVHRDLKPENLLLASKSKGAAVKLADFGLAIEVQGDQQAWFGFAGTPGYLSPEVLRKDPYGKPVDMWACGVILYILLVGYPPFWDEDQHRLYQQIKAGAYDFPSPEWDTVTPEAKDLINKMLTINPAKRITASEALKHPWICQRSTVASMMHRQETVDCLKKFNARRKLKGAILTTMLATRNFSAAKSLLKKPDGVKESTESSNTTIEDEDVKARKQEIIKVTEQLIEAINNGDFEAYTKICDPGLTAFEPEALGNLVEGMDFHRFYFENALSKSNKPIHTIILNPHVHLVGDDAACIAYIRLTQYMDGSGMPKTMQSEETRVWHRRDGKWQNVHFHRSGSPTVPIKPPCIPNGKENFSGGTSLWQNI
T10 sequence (P10721 whole entry): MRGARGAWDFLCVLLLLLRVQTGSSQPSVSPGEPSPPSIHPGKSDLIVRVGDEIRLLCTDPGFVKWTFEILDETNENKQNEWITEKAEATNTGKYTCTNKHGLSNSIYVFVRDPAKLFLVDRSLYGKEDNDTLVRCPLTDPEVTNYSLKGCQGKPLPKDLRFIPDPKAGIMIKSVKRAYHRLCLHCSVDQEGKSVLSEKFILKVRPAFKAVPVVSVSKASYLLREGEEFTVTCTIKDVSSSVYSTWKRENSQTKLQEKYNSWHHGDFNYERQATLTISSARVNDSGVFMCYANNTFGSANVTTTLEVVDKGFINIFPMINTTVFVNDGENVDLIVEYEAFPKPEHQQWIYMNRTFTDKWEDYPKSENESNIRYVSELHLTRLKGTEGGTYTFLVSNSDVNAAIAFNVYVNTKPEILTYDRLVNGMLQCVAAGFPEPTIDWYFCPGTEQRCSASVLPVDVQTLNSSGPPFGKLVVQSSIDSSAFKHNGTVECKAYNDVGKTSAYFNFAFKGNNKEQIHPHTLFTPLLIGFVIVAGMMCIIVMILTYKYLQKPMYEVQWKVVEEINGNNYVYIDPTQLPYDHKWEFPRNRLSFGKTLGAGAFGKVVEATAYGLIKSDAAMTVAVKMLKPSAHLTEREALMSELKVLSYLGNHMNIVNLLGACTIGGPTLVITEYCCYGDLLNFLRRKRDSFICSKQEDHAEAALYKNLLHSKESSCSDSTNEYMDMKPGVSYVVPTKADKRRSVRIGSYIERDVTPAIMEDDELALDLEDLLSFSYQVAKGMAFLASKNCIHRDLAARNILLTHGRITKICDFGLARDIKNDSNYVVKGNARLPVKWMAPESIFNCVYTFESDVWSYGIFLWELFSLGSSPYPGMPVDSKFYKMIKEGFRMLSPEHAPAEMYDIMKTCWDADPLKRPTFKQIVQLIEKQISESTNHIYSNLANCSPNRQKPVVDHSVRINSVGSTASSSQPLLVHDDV
T11 sequence (P12931 whole entry): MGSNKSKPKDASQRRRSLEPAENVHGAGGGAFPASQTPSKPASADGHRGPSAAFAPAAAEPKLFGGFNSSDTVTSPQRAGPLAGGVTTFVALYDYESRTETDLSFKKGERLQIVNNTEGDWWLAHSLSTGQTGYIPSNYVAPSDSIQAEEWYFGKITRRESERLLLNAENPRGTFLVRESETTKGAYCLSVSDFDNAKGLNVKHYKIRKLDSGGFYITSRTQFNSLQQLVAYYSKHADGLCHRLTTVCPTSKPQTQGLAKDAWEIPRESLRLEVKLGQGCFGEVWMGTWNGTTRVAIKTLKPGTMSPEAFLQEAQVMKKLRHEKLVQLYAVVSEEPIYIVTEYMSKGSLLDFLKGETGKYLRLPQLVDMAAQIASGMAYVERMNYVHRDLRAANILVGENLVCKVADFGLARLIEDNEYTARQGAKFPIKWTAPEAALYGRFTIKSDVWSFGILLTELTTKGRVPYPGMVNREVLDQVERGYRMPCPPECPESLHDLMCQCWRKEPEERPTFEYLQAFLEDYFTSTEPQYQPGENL
Sequence of Hck(h) activated (P08631 whole entry): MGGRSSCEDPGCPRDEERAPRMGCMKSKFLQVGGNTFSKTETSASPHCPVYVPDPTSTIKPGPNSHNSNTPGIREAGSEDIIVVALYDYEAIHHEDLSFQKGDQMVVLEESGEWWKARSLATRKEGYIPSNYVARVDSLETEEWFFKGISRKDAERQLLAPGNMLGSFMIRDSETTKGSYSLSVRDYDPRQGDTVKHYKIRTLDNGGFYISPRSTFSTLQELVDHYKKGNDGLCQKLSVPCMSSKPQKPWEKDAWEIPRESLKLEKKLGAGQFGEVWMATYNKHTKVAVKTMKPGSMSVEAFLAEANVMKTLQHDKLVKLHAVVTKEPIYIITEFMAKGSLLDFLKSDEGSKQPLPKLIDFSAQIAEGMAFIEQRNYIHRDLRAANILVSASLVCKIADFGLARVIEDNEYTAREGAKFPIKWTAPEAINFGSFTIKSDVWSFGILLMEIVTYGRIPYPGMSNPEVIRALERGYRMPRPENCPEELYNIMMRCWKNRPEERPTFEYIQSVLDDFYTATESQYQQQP
T8 sequence (Q04759 whole entry): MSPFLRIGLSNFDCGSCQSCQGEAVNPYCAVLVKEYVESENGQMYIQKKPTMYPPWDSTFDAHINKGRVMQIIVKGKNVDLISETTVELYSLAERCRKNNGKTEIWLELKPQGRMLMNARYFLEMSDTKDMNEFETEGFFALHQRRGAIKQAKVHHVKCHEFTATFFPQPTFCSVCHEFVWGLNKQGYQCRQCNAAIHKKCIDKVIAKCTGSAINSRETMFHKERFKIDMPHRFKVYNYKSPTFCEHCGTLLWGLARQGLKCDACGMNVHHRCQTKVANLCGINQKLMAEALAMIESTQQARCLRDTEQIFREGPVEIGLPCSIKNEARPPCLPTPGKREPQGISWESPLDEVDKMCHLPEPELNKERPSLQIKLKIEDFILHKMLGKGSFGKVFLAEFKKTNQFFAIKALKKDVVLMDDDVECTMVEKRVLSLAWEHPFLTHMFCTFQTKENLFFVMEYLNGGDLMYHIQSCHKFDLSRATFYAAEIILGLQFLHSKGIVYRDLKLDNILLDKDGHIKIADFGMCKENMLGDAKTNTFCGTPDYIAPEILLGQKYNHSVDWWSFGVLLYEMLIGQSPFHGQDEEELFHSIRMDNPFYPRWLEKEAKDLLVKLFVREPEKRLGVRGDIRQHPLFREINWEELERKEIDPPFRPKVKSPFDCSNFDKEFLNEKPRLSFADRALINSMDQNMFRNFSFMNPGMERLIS
Sequence of Lck(h) activated (P06239 whole entry): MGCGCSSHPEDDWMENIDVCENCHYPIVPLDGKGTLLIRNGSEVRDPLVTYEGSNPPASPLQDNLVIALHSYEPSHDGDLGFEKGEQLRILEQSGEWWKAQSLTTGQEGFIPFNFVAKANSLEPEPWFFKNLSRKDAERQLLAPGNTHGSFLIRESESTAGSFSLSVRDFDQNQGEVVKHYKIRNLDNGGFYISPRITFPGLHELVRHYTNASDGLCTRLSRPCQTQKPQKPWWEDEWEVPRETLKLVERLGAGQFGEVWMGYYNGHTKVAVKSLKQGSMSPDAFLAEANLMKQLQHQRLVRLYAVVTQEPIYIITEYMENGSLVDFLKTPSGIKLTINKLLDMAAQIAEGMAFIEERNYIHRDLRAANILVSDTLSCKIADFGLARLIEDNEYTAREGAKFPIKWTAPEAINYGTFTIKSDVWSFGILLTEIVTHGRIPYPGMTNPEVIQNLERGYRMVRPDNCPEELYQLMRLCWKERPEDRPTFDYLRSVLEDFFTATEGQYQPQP
T2 sequence (O15264 whole entry): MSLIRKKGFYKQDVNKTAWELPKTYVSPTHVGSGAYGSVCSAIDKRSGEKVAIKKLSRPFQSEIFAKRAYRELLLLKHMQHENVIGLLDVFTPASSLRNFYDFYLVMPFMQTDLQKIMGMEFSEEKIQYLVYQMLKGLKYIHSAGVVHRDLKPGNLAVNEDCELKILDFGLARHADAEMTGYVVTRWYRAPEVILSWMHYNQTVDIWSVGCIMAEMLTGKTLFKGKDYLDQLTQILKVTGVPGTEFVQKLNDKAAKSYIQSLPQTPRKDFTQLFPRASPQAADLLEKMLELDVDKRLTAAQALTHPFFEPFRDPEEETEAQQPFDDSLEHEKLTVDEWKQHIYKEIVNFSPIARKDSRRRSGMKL

**Q.** Which results are given for `CCN1CCOc2nc(N3CCOCC3)nc(-c3ccc(NC(=O)OC)cc3)c2C1=O` [Compound A]?
**A.** % inhibition at 10 μM (mTOR): 48; % inhibition at 10 μM (p38γ (SAPK3)): 64; IC50 (p38δ): 0.38 µM; IC50 (p38α): > 30 µM; IC50 (PKD1): > 30 µM; inhibition at 1 µM (CaMKIIδ(h)): -6%; inhibition at 10 µM (CaMKIIδ(h)): 1%; inhibition at 1 µM (DDR2(h)): 6%; inhibition at 10 µM (DDR2(h)): 15%; inhibition at 1 µM (DYRK2(h)): -10%; inhibition at 10 µM (DYRK2(h)): -10%; inhibition at 1 µM (Flt1(h)): -30%; inhibition at 10 µM (Flt1(h)): -28%; inhibition at 1 µM (Hck(h) activated): -5%; inhibition at 10 µM (Hck(h) activated): 5%; inhibition at 1 µM (IR(h)): -21%; inhibition at 10 µM (IR(h)): -14%; inhibition at 1 µM (LRRK2(h)): -18%; inhibition at 10 µM (LRRK2(h)): -11%; inhibition at 1 µM (Lck(h) activated): -7%; inhibition at 10 µM (Lck(h) activated): 13%; inhibition at 1 µM (PKCε(h)): 8%; inhibition at 10 µM (PKCε(h)): 12%; inhibition at 1 µM (PKCθ(h)): 7%; inhibition at 10 µM (PKCθ(h)): 7%; inhibition at 1 µM (SAPK3(h)): 11%; inhibition at 1 µM (cKit(h)): 4%; inhibition at 10 µM (cKit(h)): 6%; inhibition at 1 µM (cSRC(h)): -9%; inhibition at 10 µM (cSRC(h)): -12%; inhibition at 1 µM (mTOR(h)): -1%
